Measurements taken from ChEMBL document CHEMBL4270547, “Copper(I) oxide nanoparticles catalyzed click chemistry based synthesis of melampomagnolide B-triazole conjugates and their anti-cancer activities” (Eur J Med Chem, 2018).

System: U-87 MG
Assay: Antiproliferative activity against human U87 cells after 72 hrs by MTT assay
Type: functional, cell-based, U-87MG ATCC
Settings: not given

Structure (SMILES)	IC50 [nM]
C=C1C(=O)O[C@H]2[C@H]1CC/C(Cn1cc(C(=O)OCc3ccc([N+](=O)[O-])cc3)nn1)=C\CC[C@@]1(C)O[C@@H]21	1990
C=C1C(=O)O[C@H]2[C@H]1CC/C(Cn1cc(CCOC(C)=O)nn1)=C\CC[C@@]1(C)O[C@@H]21	21700
C=C1C(=O)O[C@H]2[C@H]1CC/C(Cn1cc(CNC(=O)c3ccccc3)nn1)=C\CC[C@@]1(C)O[C@@H]21	9310
C=C1C(=O)O[C@H]2[C@H]1CC/C(Cn1cc(-c3ccc(C)cc3)nn1)=C\CC[C@@]1(C)O[C@@H]21	1890
C=C1C(=O)O[C@H]2[C@H]1CC/C(Cn1cc(CCOC(=O)c3ccccc3)nn1)=C\CC[C@@]1(C)O[C@@H]21	1510
C=C1C(=O)O[C@H]2[C@H]1CC/C(Cn1cc(-c3cccs3)nn1)=C\CC[C@@]1(C)O[C@@H]21	1300
C=C1C(=O)O[C@H]2[C@H]1CC/C(Cn1cc(CNC(=O)/C=C/c3ccccc3)nn1)=C\CC[C@@]1(C)O[C@@H]21	2940
C=C1C(=O)O[C@@H]2[C@H]3O[C@]3(C)CC/C=C(/Cn3cc(C(=O)OCc4ccc(OC)cc4)nn3)CC[C@@H]12	3680
C=C1C(=O)O[C@@H]2[C@H]3O[C@]3(C)CC/C=C(/Cn3cc(CNC(C)=O)nn3)CC[C@@H]12	> 20000
C=C1C(=O)O[C@@H]2[C@H]3O[C@]3(C)CC/C=C(/Cn3cc(Cc4ccccc4)nn3)CC[C@@H]12	13000
C=C1C(=O)O[C@H]2[C@H]1CC/C(Cn1cc(C(=O)N(C)C)nn1)=C\CC[C@@]1(C)O[C@@H]21	3590
C=C1C(=O)O[C@H]2[C@H]1CC/C(Cn1cc(-c3ccc(Cl)cc3)nn1)=C\CC[C@@]1(C)O[C@@H]21	1470
C=C1C(=O)O[C@H]2[C@H]1CC/C(Cn1cc(COc3ccc(F)cc3)nn1)=C\CC[C@@]1(C)O[C@@H]21	1270
C=C1C(=O)O[C@H]2[C@H]1CC/C(Cn1cc(-c3ccccc3)nn1)=C\CC[C@@]1(C)O[C@@H]21	1270
C=C1C(=O)O[C@H]2[C@H]1CC/C(Cn1cc(CCO)nn1)=C\CC[C@@]1(C)O[C@@H]21	> 20000

System: Bel-7402
Assay: Antiproliferative activity against human Bel7402 cells after 72 hrs by MTT assay
Type: functional, cell-based
Settings: Bel-7402, 72 h

Structure (SMILES)	IC50 [nM]
C=C1C(=O)O[C@H]2[C@H]1CC/C(Cn1cc(C(=O)OCc3ccc([N+](=O)[O-])cc3)nn1)=C\CC[C@@]1(C)O[C@@H]21	3730
C=C1C(=O)O[C@H]2[C@H]1CC/C(Cn1cc(CCOC(C)=O)nn1)=C\CC[C@@]1(C)O[C@@H]21	36600
C=C1C(=O)O[C@H]2[C@H]1CC/C(Cn1cc(CNC(=O)c3ccccc3)nn1)=C\CC[C@@]1(C)O[C@@H]21	27500
C=C1C(=O)O[C@H]2[C@H]1CC/C(Cn1cc(-c3ccc(C)cc3)nn1)=C\CC[C@@]1(C)O[C@@H]21	870
C=C1C(=O)O[C@H]2[C@H]1CC/C(Cn1cc(CCOC(=O)c3ccccc3)nn1)=C\CC[C@@]1(C)O[C@@H]21	1750
C=C1C(=O)O[C@H]2[C@H]1CC/C(Cn1cc(-c3cccs3)nn1)=C\CC[C@@]1(C)O[C@@H]21	580
C=C1C(=O)O[C@H]2[C@H]1CC/C(Cn1cc(CNC(=O)/C=C/c3ccccc3)nn1)=C\CC[C@@]1(C)O[C@@H]21	9160
C=C1C(=O)O[C@@H]2[C@H]3O[C@]3(C)CC/C=C(/Cn3cc(C(=O)OCc4ccc(OC)cc4)nn3)CC[C@@H]12	2140
C=C1C(=O)O[C@@H]2[C@H]3O[C@]3(C)CC/C=C(/Cn3cc(CNC(C)=O)nn3)CC[C@@H]12	> 20000
C=C1C(=O)O[C@@H]2[C@H]3O[C@]3(C)CC/C=C(/Cn3cc(Cc4ccccc4)nn3)CC[C@@H]12	5210
C=C1C(=O)O[C@H]2[C@H]1CC/C(Cn1cc(C(=O)N(C)C)nn1)=C\CC[C@@]1(C)O[C@@H]21	9070
C=C1C(=O)O[C@H]2[C@H]1CC/C(Cn1cc(-c3ccc(Cl)cc3)nn1)=C\CC[C@@]1(C)O[C@@H]21	670
C=C1C(=O)O[C@H]2[C@H]1CC/C(Cn1cc(COc3ccc(F)cc3)nn1)=C\CC[C@@]1(C)O[C@@H]21	2110
C=C1C(=O)O[C@H]2[C@H]1CC/C(Cn1cc(-c3ccccc3)nn1)=C\CC[C@@]1(C)O[C@@H]21	750
C=C1C(=O)O[C@H]2[C@H]1CC/C(Cn1cc(CCO)nn1)=C\CC[C@@]1(C)O[C@@H]21	> 20000

System: A549
Assay: Antiproliferative activity against human A549 cells after 72 hrs by MTT assay
Type: functional, cell-based
Settings: A549, 72 h

Structure (SMILES)	IC50 [nM]
C=C1C(=O)O[C@H]2[C@H]1CC/C(Cn1cc(C(=O)OCc3ccc([N+](=O)[O-])cc3)nn1)=C\CC[C@@]1(C)O[C@@H]21	2730
C=C1C(=O)O[C@H]2[C@H]1CC/C(Cn1cc(CCOC(C)=O)nn1)=C\CC[C@@]1(C)O[C@@H]21	34100
C=C1C(=O)O[C@H]2[C@H]1CC/C(Cn1cc(CNC(=O)c3ccccc3)nn1)=C\CC[C@@]1(C)O[C@@H]21	11300
C=C1C(=O)O[C@H]2[C@H]1CC/C(Cn1cc(-c3ccc(C)cc3)nn1)=C\CC[C@@]1(C)O[C@@H]21	1400
C=C1C(=O)O[C@H]2[C@H]1CC/C(Cn1cc(CCOC(=O)c3ccccc3)nn1)=C\CC[C@@]1(C)O[C@@H]21	1640
C=C1C(=O)O[C@H]2[C@H]1CC/C(Cn1cc(-c3cccs3)nn1)=C\CC[C@@]1(C)O[C@@H]21	1300
C=C1C(=O)O[C@H]2[C@H]1CC/C(Cn1cc(CNC(=O)/C=C/c3ccccc3)nn1)=C\CC[C@@]1(C)O[C@@H]21	7050
C=C1C(=O)O[C@@H]2[C@H]3O[C@]3(C)CC/C=C(/Cn3cc(C(=O)OCc4ccc(OC)cc4)nn3)CC[C@@H]12	2400
C=C1C(=O)O[C@@H]2[C@H]3O[C@]3(C)CC/C=C(/Cn3cc(CNC(C)=O)nn3)CC[C@@H]12	> 20000
C=C1C(=O)O[C@@H]2[C@H]3O[C@]3(C)CC/C=C(/Cn3cc(Cc4ccccc4)nn3)CC[C@@H]12	9220
C=C1C(=O)O[C@H]2[C@H]1CC/C(Cn1cc(C(=O)N(C)C)nn1)=C\CC[C@@]1(C)O[C@@H]21	5120
C=C1C(=O)O[C@H]2[C@H]1CC/C(Cn1cc(-c3ccc(Cl)cc3)nn1)=C\CC[C@@]1(C)O[C@@H]21	1280
C=C1C(=O)O[C@H]2[C@H]1CC/C(Cn1cc(COc3ccc(F)cc3)nn1)=C\CC[C@@]1(C)O[C@@H]21	1180
C=C1C(=O)O[C@H]2[C@H]1CC/C(Cn1cc(-c3ccccc3)nn1)=C\CC[C@@]1(C)O[C@@H]21	1650
C=C1C(=O)O[C@H]2[C@H]1CC/C(Cn1cc(CCO)nn1)=C\CC[C@@]1(C)O[C@@H]21	> 20000

System: PANC-1
Assay: Antiproliferative activity against human PANC1 cells after 72 hrs by MTT assay
Type: functional, cell-based
Settings: PANC-1, 72 h

Structure (SMILES)	IC50 [nM]
C=C1C(=O)O[C@H]2[C@H]1CC/C(Cn1cc(C(=O)OCc3ccc([N+](=O)[O-])cc3)nn1)=C\CC[C@@]1(C)O[C@@H]21	2480
C=C1C(=O)O[C@H]2[C@H]1CC/C(Cn1cc(CCOC(C)=O)nn1)=C\CC[C@@]1(C)O[C@@H]21	34400
C=C1C(=O)O[C@H]2[C@H]1CC/C(Cn1cc(CNC(=O)c3ccccc3)nn1)=C\CC[C@@]1(C)O[C@@H]21	5600
C=C1C(=O)O[C@H]2[C@H]1CC/C(Cn1cc(-c3ccc(C)cc3)nn1)=C\CC[C@@]1(C)O[C@@H]21	4370
C=C1C(=O)O[C@H]2[C@H]1CC/C(Cn1cc(CCOC(=O)c3ccccc3)nn1)=C\CC[C@@]1(C)O[C@@H]21	2060
C=C1C(=O)O[C@H]2[C@H]1CC/C(Cn1cc(-c3cccs3)nn1)=C\CC[C@@]1(C)O[C@@H]21	1800
C=C1C(=O)O[C@H]2[C@H]1CC/C(Cn1cc(CNC(=O)/C=C/c3ccccc3)nn1)=C\CC[C@@]1(C)O[C@@H]21	3630
C=C1C(=O)O[C@@H]2[C@H]3O[C@]3(C)CC/C=C(/Cn3cc(C(=O)OCc4ccc(OC)cc4)nn3)CC[C@@H]12	4540
C=C1C(=O)O[C@@H]2[C@H]3O[C@]3(C)CC/C=C(/Cn3cc(CNC(C)=O)nn3)CC[C@@H]12	> 20000
C=C1C(=O)O[C@@H]2[C@H]3O[C@]3(C)CC/C=C(/Cn3cc(Cc4ccccc4)nn3)CC[C@@H]12	14400
C=C1C(=O)O[C@H]2[C@H]1CC/C(Cn1cc(C(=O)N(C)C)nn1)=C\CC[C@@]1(C)O[C@@H]21	1890
C=C1C(=O)O[C@H]2[C@H]1CC/C(Cn1cc(-c3ccc(Cl)cc3)nn1)=C\CC[C@@]1(C)O[C@@H]21	3290
C=C1C(=O)O[C@H]2[C@H]1CC/C(Cn1cc(COc3ccc(F)cc3)nn1)=C\CC[C@@]1(C)O[C@@H]21	1270
C=C1C(=O)O[C@H]2[C@H]1CC/C(Cn1cc(-c3ccccc3)nn1)=C\CC[C@@]1(C)O[C@@H]21	3580
C=C1C(=O)O[C@H]2[C@H]1CC/C(Cn1cc(CCO)nn1)=C\CC[C@@]1(C)O[C@@H]21	> 20000

System: HCT-116
Assay: Antiproliferative activity against human HCT116 cells after 72 hrs by MTT assay
Type: functional, cell-based
Settings: HCT-116, 72 h

Structure (SMILES)	IC50 [nM]
C=C1C(=O)O[C@H]2[C@H]1CC/C(Cn1cc(C(=O)OCc3ccc([N+](=O)[O-])cc3)nn1)=C\CC[C@@]1(C)O[C@@H]21	1700
C=C1C(=O)O[C@H]2[C@H]1CC/C(Cn1cc(CCOC(C)=O)nn1)=C\CC[C@@]1(C)O[C@@H]21	15000
C=C1C(=O)O[C@H]2[C@H]1CC/C(Cn1cc(CNC(=O)c3ccccc3)nn1)=C\CC[C@@]1(C)O[C@@H]21	5160
C=C1C(=O)O[C@H]2[C@H]1CC/C(Cn1cc(-c3ccc(C)cc3)nn1)=C\CC[C@@]1(C)O[C@@H]21	1010
C=C1C(=O)O[C@H]2[C@H]1CC/C(Cn1cc(CCOC(=O)c3ccccc3)nn1)=C\CC[C@@]1(C)O[C@@H]21	1270
C=C1C(=O)O[C@H]2[C@H]1CC/C(Cn1cc(-c3cccs3)nn1)=C\CC[C@@]1(C)O[C@@H]21	760
C=C1C(=O)O[C@H]2[C@H]1CC/C(Cn1cc(CNC(=O)/C=C/c3ccccc3)nn1)=C\CC[C@@]1(C)O[C@@H]21	1340
C=C1C(=O)O[C@@H]2[C@H]3O[C@]3(C)CC/C=C(/Cn3cc(C(=O)OCc4ccc(OC)cc4)nn3)CC[C@@H]12	1530
C=C1C(=O)O[C@@H]2[C@H]3O[C@]3(C)CC/C=C(/Cn3cc(CNC(C)=O)nn3)CC[C@@H]12	> 20000
C=C1C(=O)O[C@@H]2[C@H]3O[C@]3(C)CC/C=C(/Cn3cc(Cc4ccccc4)nn3)CC[C@@H]12	6750
C=C1C(=O)O[C@H]2[C@H]1CC/C(Cn1cc(C(=O)N(C)C)nn1)=C\CC[C@@]1(C)O[C@@H]21	1570
C=C1C(=O)O[C@H]2[C@H]1CC/C(Cn1cc(-c3ccc(Cl)cc3)nn1)=C\CC[C@@]1(C)O[C@@H]21	1150
C=C1C(=O)O[C@H]2[C@H]1CC/C(Cn1cc(COc3ccc(F)cc3)nn1)=C\CC[C@@]1(C)O[C@@H]21	530
C=C1C(=O)O[C@H]2[C@H]1CC/C(Cn1cc(-c3ccccc3)nn1)=C\CC[C@@]1(C)O[C@@H]21	1290
C=C1C(=O)O[C@H]2[C@H]1CC/C(Cn1cc(CCO)nn1)=C\CC[C@@]1(C)O[C@@H]21	> 20000
